Tests used:
MST4, YSK1 = test: KiNativ, OCI cells live cell; format: cell-based, human; details: labeling site Lys2, peptide DIKAANVLLSEQGDVK
PFTAIRE2 = PFTAIRE2 (Homo sapiens, UniProt Q96Q40); test: KiNativ, OCI cells live cell; format: cell-based; details: 2 h, labeling site Lys2, peptide […]
MAP2K7 = MAP2K7 (Homo sapiens, UniProt O14733); test: KiNativ, OCI cells live cell; format: cell-based; details: labeling site Lys2, peptide DVKPSNILLDER
PIK3C2B = PIK3C2B (Homo sapiens, UniProt O00750); test: KiNativ, OCI cells live cell; format: cell-based; details: 2 h, labeling site ATP, peptide […]
MAP2K6 = molecular target: T1, MAP2K6 (Homo sapiens, UniProt P52564); test: KiNativ, OCI cells live cell; format: cell-based; details: 2 h
T1 sequence (P52564 1-334): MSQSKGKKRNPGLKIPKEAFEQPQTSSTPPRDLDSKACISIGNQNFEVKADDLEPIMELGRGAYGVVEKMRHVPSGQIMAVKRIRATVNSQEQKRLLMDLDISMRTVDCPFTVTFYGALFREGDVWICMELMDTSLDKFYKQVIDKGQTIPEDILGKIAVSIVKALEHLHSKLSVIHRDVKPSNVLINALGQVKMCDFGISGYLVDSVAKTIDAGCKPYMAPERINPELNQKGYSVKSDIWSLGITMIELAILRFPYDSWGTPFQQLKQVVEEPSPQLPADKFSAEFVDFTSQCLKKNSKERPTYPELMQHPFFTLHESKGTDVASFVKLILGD

RSK2 domain1 = molecular target: T2, RSK2 domain1 (Homo sapiens, UniProt P51812); test: KiNativ, OCI cells live cell; format: cell-based; details: 2 h
T2 construct: RSK2 domain1

CASK = CASK (Homo sapiens, UniProt O14936); test: KiNativ, OCI cells live cell; format: cell-based; details: 2 h, labeling site Lys1, peptide […]
DGKA = DGKA (Homo sapiens, UniProt P23743); test: KiNativ, OCI cells live cell; format: cell-based; details: 2 h, labeling site ATP, peptide […]
IKKa = IKKa (Homo sapiens, UniProt O15111); test: KiNativ, OCI cells live cell; format: cell-based; details: 2 h, labeling site Lys2, peptide […]
NEK3 = NEK3 (Homo sapiens, UniProt P51956); test: KiNativ, OCI cells live cell; format: cell-based; details: 2 h, labeling site Activation Loop, peptide […]
IRE1 = IRE1 (Homo sapiens, UniProt O75460); test: KiNativ, OCI cells live cell; format: cell-based; details: 2 h, labeling site Lys2, peptide […]
OCI-AML3 cells = test: CD11b expression assay; format: cell-based, human; details: 20 nM and 50 nM, 72 hours
Experimental: (§1) Apoptosis and CD11b expression assays
(§2) At indicated time points, cells were collected and washed with PBS. CD11b expression was measured using anti-CD11b -APC antibody (BioLegend, San Diego, CA). Each sample was suspended in 100uL of FACS buffer (PBS + 4% FBS) with 1uL of antibody, incubated on ice for 15 minutes in the dark and washed once in PBS. DAPI (final concentration 1ug/mL [ThermoFisher Scientific]) was added to each sample as a viability dye. For apoptosis assay, cells were incubated with annexin V-APC (BioLegend) according to manufacturer’s instructions. CD11b expression and apoptosis were measured by BD LSR II flow cytometer. Two-color cytometry was performed, and data were […]
(§3) points, cells were collected and washed with 0.1% EDTA PBS (Ricca Chemical Company, Arlington, TX) followed by only PBS. Cells were then fixed on ice with ice-cold 70% ethanol for 30 minutes . Cells were either stored at -20°C for up to 1 month or processed immediately. Cells were spun down at 450 x g for 10 minutes and stained

[1] = system: MV4-11, MOLM13, and MOLM13-RES cells; test: CD11b expression assay; format: cell-based, human; details: 20 nM, 72 hours
Experimental: as §1, §2, §3

MAPKAPK2, MAPKAPK3 = test: KiNativ, OCI cells live cell; format: cell-based, human; details: labeling site Lys2, peptide DVKPENLLYTSK
MAP3K2 = MAP3K2 (Homo sapiens, UniProt Q9Y2U5); test: KiNativ, OCI cells live cell; format: cell-based; details: 2 h, labeling site Lys1, peptide […]
CaMK2g = CaMK2g (Homo sapiens, UniProt Q13555); test: KiNativ, OCI cells live cell; format: cell-based; details: 2 h, labeling site Lys1, peptide […]
[2] = system: pAURKA, pAURKB, pAKT, and MCL1 in OCI-AML3 cells; test: Western blot, signaling inhibition; format: cell-based, human; details: 100 nM, 4 hours
Experimental: (§4) MOM13 cells were serum starved (RPMI plus 0.5% FBS) for 18–24 hours prior to start of drug treatment. For other cells, they were not serum starved. Drug treatments were carried out for 1 or 4 hours, at which time cells were lysed with Cell Lysis buffer (CST) or RIPA buffer (CST) supplemented with protease and phosphatase inhibitors. […] Western blots were developed with either Signal Fire ECL reagent (CST) or SuperSignal West Femto Maximum Sensitivity Substrate (Invitrogen) using Film or Odyssey FC Imaging System (LI-COR Biosciences). Western blots were repeated in 2–3 biological replicate experiments.

[3] = system: phospho-FLT3 and phospho-STAT5 in MOLM13 and MV4-11 cells; test: Western blot, signaling inhibition; format: cell-based, human; details: 4 hours
Experimental: as §4

CK2a1 = CK2a1 (Homo sapiens, UniProt P68400); test: KiNativ, OCI cells live cell; format: cell-based; details: 2 h, labeling site Protein Kinase Domain, peptide […]
ALK = molecular target: T3, ALK (Homo sapiens, UniProt Q9UM73); test: KdELECT binding assay
T3 construct: purchased Eurofins DiscoverX

T2 sequence (P51812 whole entry, the tested form may be a part): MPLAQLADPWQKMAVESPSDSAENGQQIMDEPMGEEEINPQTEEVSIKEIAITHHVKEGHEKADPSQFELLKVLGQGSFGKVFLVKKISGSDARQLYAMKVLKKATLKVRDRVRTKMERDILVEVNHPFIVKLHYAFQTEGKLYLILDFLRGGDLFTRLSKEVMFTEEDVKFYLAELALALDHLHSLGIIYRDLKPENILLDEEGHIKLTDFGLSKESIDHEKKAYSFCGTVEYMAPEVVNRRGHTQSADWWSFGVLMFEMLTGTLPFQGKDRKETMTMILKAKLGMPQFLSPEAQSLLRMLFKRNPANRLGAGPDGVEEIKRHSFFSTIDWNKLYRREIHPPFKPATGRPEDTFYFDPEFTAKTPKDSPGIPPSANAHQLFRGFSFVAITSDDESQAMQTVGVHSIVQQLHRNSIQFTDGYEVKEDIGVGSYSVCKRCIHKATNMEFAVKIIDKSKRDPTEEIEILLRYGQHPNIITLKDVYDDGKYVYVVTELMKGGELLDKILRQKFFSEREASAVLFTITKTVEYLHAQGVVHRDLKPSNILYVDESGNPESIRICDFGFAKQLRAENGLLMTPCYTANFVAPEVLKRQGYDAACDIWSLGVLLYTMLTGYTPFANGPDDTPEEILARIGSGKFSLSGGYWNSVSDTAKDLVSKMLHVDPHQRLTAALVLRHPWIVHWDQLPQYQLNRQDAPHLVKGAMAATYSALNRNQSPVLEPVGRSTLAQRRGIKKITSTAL
Sequence of PFTAIRE2 (Q96Q40 whole entry): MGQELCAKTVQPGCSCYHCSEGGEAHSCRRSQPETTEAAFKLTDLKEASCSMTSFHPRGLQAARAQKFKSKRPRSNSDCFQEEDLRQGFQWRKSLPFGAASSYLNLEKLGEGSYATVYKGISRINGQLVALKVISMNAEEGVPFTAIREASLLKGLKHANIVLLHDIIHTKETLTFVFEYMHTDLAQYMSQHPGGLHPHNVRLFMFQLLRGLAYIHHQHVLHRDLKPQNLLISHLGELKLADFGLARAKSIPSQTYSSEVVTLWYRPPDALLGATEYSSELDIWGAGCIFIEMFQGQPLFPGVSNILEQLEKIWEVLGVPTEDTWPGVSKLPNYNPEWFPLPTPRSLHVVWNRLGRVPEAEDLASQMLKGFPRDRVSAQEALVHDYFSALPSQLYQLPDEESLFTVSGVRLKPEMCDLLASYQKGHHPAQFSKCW
Sequence of IRE1 (O75460 19-977): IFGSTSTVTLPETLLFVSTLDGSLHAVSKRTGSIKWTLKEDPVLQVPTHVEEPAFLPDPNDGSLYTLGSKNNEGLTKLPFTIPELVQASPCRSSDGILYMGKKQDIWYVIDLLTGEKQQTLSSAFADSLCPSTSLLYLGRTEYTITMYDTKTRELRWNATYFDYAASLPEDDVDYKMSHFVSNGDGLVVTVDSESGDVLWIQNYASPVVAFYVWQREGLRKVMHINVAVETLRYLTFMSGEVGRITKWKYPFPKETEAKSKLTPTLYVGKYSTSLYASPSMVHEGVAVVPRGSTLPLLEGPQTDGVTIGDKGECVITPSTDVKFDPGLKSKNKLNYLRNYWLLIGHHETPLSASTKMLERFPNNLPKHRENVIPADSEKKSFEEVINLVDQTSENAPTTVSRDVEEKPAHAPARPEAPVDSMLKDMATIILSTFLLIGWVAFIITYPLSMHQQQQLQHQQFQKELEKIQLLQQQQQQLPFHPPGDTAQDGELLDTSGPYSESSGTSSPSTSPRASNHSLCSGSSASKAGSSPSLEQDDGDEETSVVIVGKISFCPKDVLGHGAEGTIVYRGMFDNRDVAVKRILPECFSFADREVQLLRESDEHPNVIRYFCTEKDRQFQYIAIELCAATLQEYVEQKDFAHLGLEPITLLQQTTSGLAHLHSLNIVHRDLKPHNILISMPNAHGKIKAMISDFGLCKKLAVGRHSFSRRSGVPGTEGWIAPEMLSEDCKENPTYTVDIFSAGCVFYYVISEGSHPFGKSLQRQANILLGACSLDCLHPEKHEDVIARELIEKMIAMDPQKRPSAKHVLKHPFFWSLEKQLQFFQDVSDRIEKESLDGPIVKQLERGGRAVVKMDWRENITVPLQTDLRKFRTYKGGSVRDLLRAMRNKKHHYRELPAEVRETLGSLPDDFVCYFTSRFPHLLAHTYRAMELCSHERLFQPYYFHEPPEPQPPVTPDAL
Sequence of MAP3K2 (Q9Y2U5 whole entry): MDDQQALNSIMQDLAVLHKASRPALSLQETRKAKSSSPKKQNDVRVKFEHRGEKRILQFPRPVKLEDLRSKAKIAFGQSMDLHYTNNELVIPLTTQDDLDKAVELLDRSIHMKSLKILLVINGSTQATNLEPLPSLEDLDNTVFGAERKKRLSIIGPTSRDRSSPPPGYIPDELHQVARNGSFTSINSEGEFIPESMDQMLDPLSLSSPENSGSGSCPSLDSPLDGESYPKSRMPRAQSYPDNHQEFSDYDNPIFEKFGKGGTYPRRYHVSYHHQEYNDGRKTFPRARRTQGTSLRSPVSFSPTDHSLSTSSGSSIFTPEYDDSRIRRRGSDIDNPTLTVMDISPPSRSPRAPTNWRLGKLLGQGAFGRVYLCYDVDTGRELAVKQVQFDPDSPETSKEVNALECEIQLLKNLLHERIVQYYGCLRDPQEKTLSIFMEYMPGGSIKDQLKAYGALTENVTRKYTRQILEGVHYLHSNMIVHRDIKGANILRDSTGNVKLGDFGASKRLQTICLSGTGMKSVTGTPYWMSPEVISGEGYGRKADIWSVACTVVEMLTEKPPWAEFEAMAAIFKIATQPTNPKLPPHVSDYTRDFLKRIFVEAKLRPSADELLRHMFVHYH
Sequence of IKKa (O15111 whole entry): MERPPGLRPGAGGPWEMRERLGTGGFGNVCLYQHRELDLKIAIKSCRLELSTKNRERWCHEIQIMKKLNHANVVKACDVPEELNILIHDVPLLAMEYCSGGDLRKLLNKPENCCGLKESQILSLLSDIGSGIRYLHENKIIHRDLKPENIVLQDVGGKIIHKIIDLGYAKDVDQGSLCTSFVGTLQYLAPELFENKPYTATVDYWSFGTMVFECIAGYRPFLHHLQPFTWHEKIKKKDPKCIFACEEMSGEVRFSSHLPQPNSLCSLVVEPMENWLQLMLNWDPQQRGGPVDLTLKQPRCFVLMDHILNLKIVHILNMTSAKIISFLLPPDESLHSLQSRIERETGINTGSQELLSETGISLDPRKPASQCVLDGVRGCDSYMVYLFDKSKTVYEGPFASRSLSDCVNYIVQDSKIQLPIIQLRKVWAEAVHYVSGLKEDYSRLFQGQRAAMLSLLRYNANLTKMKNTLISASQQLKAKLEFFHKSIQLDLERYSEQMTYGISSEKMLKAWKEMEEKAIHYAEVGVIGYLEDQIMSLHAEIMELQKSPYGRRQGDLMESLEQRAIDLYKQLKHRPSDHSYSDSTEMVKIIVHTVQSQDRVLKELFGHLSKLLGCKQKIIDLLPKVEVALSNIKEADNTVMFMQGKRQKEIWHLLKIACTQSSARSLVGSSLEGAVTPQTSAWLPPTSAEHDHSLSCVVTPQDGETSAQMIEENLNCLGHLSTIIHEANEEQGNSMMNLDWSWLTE
Sequence of NEK3 (P51956 whole entry): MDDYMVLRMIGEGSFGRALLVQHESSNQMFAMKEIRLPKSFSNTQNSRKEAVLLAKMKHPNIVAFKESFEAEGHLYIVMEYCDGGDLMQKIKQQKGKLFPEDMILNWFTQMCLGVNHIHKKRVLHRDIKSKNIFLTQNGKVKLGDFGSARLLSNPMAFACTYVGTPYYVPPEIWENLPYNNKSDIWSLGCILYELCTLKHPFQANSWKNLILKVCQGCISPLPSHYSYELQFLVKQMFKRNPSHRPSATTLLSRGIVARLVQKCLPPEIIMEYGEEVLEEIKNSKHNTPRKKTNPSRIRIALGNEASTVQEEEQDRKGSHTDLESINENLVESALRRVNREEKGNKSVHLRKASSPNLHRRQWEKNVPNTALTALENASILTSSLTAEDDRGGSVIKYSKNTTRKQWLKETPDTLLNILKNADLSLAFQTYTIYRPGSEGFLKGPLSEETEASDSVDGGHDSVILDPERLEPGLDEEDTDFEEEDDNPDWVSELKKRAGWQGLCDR
Sequence of CASK (O14936 whole entry): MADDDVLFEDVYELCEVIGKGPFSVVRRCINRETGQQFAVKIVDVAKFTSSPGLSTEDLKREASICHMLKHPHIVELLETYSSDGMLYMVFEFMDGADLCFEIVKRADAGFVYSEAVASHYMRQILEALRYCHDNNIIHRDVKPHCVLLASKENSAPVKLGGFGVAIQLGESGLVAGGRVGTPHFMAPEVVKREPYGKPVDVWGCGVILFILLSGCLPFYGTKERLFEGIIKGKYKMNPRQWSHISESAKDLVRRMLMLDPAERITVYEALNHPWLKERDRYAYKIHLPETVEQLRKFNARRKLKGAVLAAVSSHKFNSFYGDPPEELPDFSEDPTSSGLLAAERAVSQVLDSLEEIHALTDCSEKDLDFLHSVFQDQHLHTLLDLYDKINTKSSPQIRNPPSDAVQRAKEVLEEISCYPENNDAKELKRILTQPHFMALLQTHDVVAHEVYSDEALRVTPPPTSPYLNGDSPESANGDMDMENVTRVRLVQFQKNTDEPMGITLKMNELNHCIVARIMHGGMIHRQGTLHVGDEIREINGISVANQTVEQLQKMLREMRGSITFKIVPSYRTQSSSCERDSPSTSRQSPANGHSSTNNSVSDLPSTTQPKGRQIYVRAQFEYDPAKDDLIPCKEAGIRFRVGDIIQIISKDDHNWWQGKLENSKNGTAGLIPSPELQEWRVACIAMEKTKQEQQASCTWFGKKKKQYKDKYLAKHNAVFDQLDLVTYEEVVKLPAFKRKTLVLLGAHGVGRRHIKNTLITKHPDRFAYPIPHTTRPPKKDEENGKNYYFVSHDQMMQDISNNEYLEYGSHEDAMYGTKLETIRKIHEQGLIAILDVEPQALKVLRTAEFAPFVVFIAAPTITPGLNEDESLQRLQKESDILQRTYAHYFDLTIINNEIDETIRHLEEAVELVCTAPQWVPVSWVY

CN1CCN(Cc2ccc(Nc3ncc(Cl)c(Nc4ccccc4S(=O)(=O)N(C)C)n3)cc2)CC1 [TP-0903]
Inhibition (MST4, YSK1): 25.0%
inhibition at 0.1 µM (PFTAIRE2): 28.4%
Inhibition (MAP2K7): -6.6%
inhibition at 0.1 µM (PIK3C2B): 0.282%
inhibition at 0.1 µM (MAP2K6; labeling site Activation Loop, peptide MCDFGISGYLVDSVAKTIDAGCKPYMAPER): 8.8%
inhibition at 0.1 µM (MAP2K6; labeling site Lys1, peptide HVPSGQIMAVKR): 28%
inhibition at 0.1 µM (MAP2K6; labeling site Lys2, peptide DVKPSNVLINALGQVK): 18.6%
inhibition at 0.1 µM (RSK2 domain1; labeling site Activation Loop, peptide LTDFGLSKESIDHEKK): 52.4%
inhibition at 0.1 µM (RSK2 domain1; labeling site Lys1, peptide QLYAMKVLK): 48.2%
inhibition at 0.1 µM (CASK): 31.2%
inhibition at 0.1 µM (DGKA): -41.6%
inhibition at 0.1 µM (IKKa): 2.6%
inhibition at 0.1 µM (NEK3): -11.9%
inhibition at 0.1 µM (IRE1): 33.5%
CD11b expression (OCI-AML3 cells): increase
Cell surface expression of CD11b [1]: increased
Inhibition (MAPKAPK2, MAPKAPK3): -42.8%
inhibition at 0.1 µM (MAP3K2): 30.6%
inhibition at 0.1 µM (CaMK2g): 31.6%
pAURKA, pAURKB, pAKT, and MCL1 by immunoblot [2]: inhibited
phospho-FLT3 and phospho-STAT5 by immunoblot [3]: inhibited
inhibition at 0.1 µM (CK2a1): -50.8%
Kd (ALK): < 5 nM
